The values below come from publication PMC9586930, “Molecular insights into the distinct signaling duration for the peptide-induced PTH1R activation” (Nature Communications, 2022).

This experiment addresses T1, WT PTH1R (Homo sapiens, UniProt Q03431).
T1 construct: a flag-tag was fused to the N terminal of full-length PTH1R (WT or mutant); expressed in transfected cells; host or cells: HEK293T
T1 sequence (Q03431 27-593): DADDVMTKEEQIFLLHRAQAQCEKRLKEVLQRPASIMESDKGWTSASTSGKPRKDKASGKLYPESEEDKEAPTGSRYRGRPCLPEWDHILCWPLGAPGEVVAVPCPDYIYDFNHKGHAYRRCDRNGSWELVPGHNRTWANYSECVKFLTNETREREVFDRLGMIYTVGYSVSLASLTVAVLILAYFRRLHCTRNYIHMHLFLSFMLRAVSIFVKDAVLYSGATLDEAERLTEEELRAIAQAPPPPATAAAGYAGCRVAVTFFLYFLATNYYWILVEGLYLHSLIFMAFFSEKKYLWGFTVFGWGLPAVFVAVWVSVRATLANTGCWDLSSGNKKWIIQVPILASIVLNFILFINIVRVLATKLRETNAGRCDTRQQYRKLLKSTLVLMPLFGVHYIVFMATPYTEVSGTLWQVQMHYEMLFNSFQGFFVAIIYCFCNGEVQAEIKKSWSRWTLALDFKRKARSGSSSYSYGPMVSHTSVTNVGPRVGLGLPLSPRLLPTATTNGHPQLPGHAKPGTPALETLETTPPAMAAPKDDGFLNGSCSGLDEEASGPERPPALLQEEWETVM
As to the kind of experiment: cAMP accumulation assay (GloSensor), wild-type PTH1R. In kind it is cell-based. As to conditions: HEK293T cells; for Emax: from curve fitting dose-response data; for EC50: half-maximal stimulatory concentration from curve fitting dose-response data. As to the method:
Human embryonic kidney 293 T (HEK293T, ATCC: CRL-1573) cells were transfected with a plasmid mixture consisting of pcDNA3.1-flag-PTH1R (WT or mutants) and the cAMP biosensor GloSensor-22F (Promega) at a ratio of 2:1 (see Supplementary Table 7 for a list of primers used in this study). After 24 h, transfected cells were plated onto a 384-well plate, which was treated with cell adherent reagent (Applygen) in advance. After another 12 h, cells were treated with Hank’s balanced salt solution for starvation and then incubated in CO2-independent media containing 4% GloSensor cAMP Reagent (Promega) at a volume of 5 μl per well and incubated for 20 min at RT before measurements for baseline luminescence (Spark Multimode microplate reader, TECAN). Next, test ligands were added at different concentrations from 10^−6 to 10^−13 M before second measurement. Finally, data were normalized to 100% of the maximal PTH (1-34) response for WT PTH1R using a sigmoidal dose-response in GraphPad Prism.
Statistical analyses were performed on at least three individual datasets and analysed using GraphPad Prism software. Bars represent differences in the calculated agonist potency (pEC50) and maximum agonist response (Emax) for each mutant relative to the WT receptor. Data are mean± s.e.m. from at least three independent experiments, performed in triplicates. ns, not significant, ^nsP > 0.01; ^*P < 0.01; ^**P < 0.001; ^***P < 0.0001 (one-way analysis of variance (ANOVA) followed by Dunnett’s test, compared with the response of the WT). For dose-response experiments, data were normalized and analyzed using nonlinear curve fitting for the log (agonist) versus response (three parameters) curves.
(In general: cAMP levels reflect the balance of adenylyl cyclase and phosphodiesterase activity.)

Non-standard residues stand in square brackets, D forms with d. Residues, ends and D or L forms follow the SMILES beside them. No end group written: not given here. Aib = CC(C)(N)C(=O)O

On to “AVAEIQLLMHQRAKSIQDARRRAFLHKLIAEIHTAEI [LAPTH(W14H)]”, for which the Emax was 107.5 luminescence counts per 500ms.

As to `CC[C@H](C)[C@H](NC(=O)[C@H](CO)NC(=O)[C@H](CCCCN)NC(=O)CNC(=O)[C@H](CCCCN)NC(=O)[C@H](CC(=O)O)NC(=O)[C@H](Cc1c[nH]cn1)NC(=O)[C@H](CC(C)C)NC(=O)[C@H](CC(C)C)NC(=O)[C@H](CCC(N)=O)NC(=O)[C@@H](NC(=O)[C@H](CCC(=O)O)NC(=O)[C@H](CO)NC(=O)[C@@H](NC(=O)[C@H](C)N)C(C)C)[C@@H](C)CC)C(=O)N[C@@H](CCC(N)=O)C(=O)N[C@@H](CC(=O)O)C(=O)N[C@@H](CC(C)C)C(=O)N[C@@H](CCCNC(=N)N)C(=O)N[C@@H](CCCNC(=N)N)C(=O)N[C@@H](CCCNC(=N)N)C(=O)N[C@@H](CCC(=O)O)C(=O)N[C@@H](CC(C)C)C(=O)N[C@@H](CC(C)C)C(=O)N[C@@H](CCC(=O)O)C(=O)N[C@@H](CCCCN)C(=O)N[C@@H](CC(C)C)C(=O)N[C@@H](CC(C)C)C(=O)NC(C)(C)C(=O)N[C@@H](CCCCN)C(=O)N[C@@H](CC(C)C)C(=O)N[C@@H](Cc1c[nH]cn1)C(=O)N[C@H](C(=O)N[C@@H](C)C(N)=O)[C@@H](C)O` [ABL(H5I)] (H-AVSEIQLLHDKGKSIQDLRRRELLEKLL[Aib]KLHTA-NH2), the Emax is listed as 104.1 luminescence counts per 500ms and the EC50 – broadly, the concentration needed to bring the measured effect to its halfway point – was 0.32 nM.

Consider “AVAEHQLMHQLAKWIQDARRRAFLHKLIAEIHTAEI [LAPTH(I5H;R11L)]”, for which the Emax is recorded as 106.9 luminescence counts per 500ms and the EC50 was 2.08 nM.

With “AVAEHQLMHQRAKWLNSMERVEWLRKKLQDVHNF [LAPTH(1-14,I5H)/PTH(15-34)]”, the Emax is 129.6 luminescence counts per 500ms and a half-maximal response (EC50) required 0.643 nM.

Regarding “SVSEHQLMHNLGKHIQDARRRAFLHKLIAEIHTAEI [LA-PTH (I5H-PTH;NT)]”, the Emax was 102.1 luminescence counts per 500ms and the EC50 is 1.98 nM.

As to “AVSEHQLMHQRAKWIQDARRRAFLHKLIAEIHTAEI [LAPTH(I5H;A3S)]”, the Emax is 125.3 luminescence counts per 500ms and the EC50 is 0.39 nM.

Take “AVAEHQLMHQRGKWIQDARRRAFLHKLIAEIHTAEI [LAPTH(I5H;A12G)]”: the Emax is on record as 129.5 luminescence counts per 500ms and the EC50 was 2.08 nM.

In the case of “AVAEHQLMHNRAKWIQDARRRAFLHKLIAEIHTAEI [LAPTH(I5H;Q10N)]”, the Emax is 117.7 luminescence counts per 500ms and the EC50 is 1.4 nM.

In the case of “AVAEHQLMHQRAKHIQDARRRAFLHKLIAEIHTAEI [LAPTH(I5H;W14H)]”, the Emax is 117.8 luminescence counts per 500ms and the response was half-maximal at 0.493 nM (EC50).

In the case of “SVAEHQLMHQRAKWIQDARRRAFLHKLIAEIHTAEI [LAPTH(I5H;A1S)]”, the Emax is given as 119.8 luminescence counts per 500ms and the EC50 was 1.84 nM.

“AVAEIQLLHQRAKWIQDARRRAFLHKLIAEIHTAEI [LAPTH(M8L)]” showed an EC50 of 3.45 nM.

“AVAEHQLMHQRAKWIQDLRRRFFLHHLIAEIHTAEI-NH2 [LAPTH(1-14,I5H)/PTHrP(15-34)]”: the Emax is given as 142.8 luminescence counts per 500ms and a half-maximal effect (EC50) was put at 1.76 nM.

“AVAEHQLMHQRAKWIQDARRRAFLHKLIAEIHTAEI [LAPTH(I5H)]” showed an EC50 of 0.183 nM.

With `CSCC[C@H](NC(=O)[C@H](CC(C)C)NC(=O)[C@H](CCC(N)=O)NC(=O)[C@H](Cc1c[nH]cn1)NC(=O)[C@H](CCC(=O)O)NC(=O)[C@H](CO)NC(=O)[C@@H](NC(=O)[C@@H](N)CO)C(C)C)C(=O)N[C@@H](Cc1c[nH]cn1)C(=O)N[C@@H](CC(N)=O)C(=O)N[C@@H](CC(C)C)C(=O)NCC(=O)N[C@@H](CCCCN)C(=O)N[C@@H](Cc1c[nH]cn1)C(=O)N[C@@H](CC(C)C)C(=O)N[C@@H](CC(N)=O)C(=O)N[C@@H](CO)C(=O)N[C@@H](CCSC)C(=O)N[C@@H](CCC(=O)O)C(=O)N[C@@H](CCCNC(=N)N)C(=O)N[C@H](C(=O)N[C@@H](CCC(=O)O)C(=O)N[C@@H](Cc1c[nH]c2ccccc12)C(=O)N[C@@H](CC(C)C)C(=O)N[C@@H](CCCNC(=N)N)C(=O)N[C@@H](CCCCN)C(=O)N[C@@H](CCCCN)C(=O)N[C@@H](CC(C)C)C(=O)N[C@@H](CCC(N)=O)C(=O)N[C@@H](CC(=O)O)C(=O)N[C@H](C(=O)N[C@@H](Cc1c[nH]cn1)C(=O)N[C@@H](CC(N)=O)C(=O)N[C@@H](Cc1ccccc1)C(=O)O)C(C)C)C(C)C` [PTH(I5H)], a half-maximal response (EC50) required 23.6 nM.
